Laboratory results reported in patent publication US12679824B2 (Hoffmann-La Roche Inc., priority 2020, dated 2026).

tested on: Acinetobacter baumannii ATCC17961; test: 90% Growth Inhibitory Concentration (IC90) determination, antimicrobial susceptibility testing; type: cell-based; details: Acinetobacter baumannii, ATCC17961, 16 h, Acinetobacter baumannii ATCC17961; Iso-Sensitest broth; growth by optical density at 600 nm over 16h; concentration inhibiting 90% of the growth; read-out: ATCC 17961 IC90
How it was run: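 Broth microdilution in Iso-Sensitest medium, compounds twofold diluted (e.g. 50–0.097 μM final), inoculum ~5×10^(5) CFU/ml, 35±2° C. OD600 was read every 20 min over 16 h. IC90 was derived from growth inhibition during logarithmic growth.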

| SMILES | IC90 [nM] |
| --- | --- |
| Cn1c(-c2cn(-c3ccc(NCCN)cn3)nc2C(F)(F)F)cnc1C(=O)Nc1ccc(C(=O)N2CCN(C(=O)C3CCNCC3)CC2)c(Cl)c1 [Example Z89, 5-[1-[5-(2-aminoethylamino)-2-pyridyl]-3-(trifluoromethyl)pyrazol-4-yl]-N-[3-chloro-4-(4-isonipecotoylpiperazine-1-carbonyl)phenyl]-1-methyl-imidazole-2-carboxamide] | 100 |
| CC(C)[C@H]1CN(C(=O)c2ccc(NC(=O)c3ncc(-c4cn(-c5ccc(N)cn5)nc4C(F)(F)F)n3C)cc2Cl)CCN1 [Example Z58, 5-[1-(5-amino-2-pyridyl)-3-(trifluoromethyl)pyrazol-4-yl]-N-[3-chloro-4-[(3S)-3-isopropylpiperazine-1-carbonyl]phenyl]-1-methyl-imidazole-2-carboxamide] | 560 |
| Cn1c(-c2cn(-c3ccc(N)cn3)nc2C(F)(F)F)cnc1C(=O)Nc1ccc(C(=O)N2CC[C@@H](CN)C2)c(Cl)c1 [Example Z7, N-[4-[(3S)-3-(aminomethyl)pyrrolidine-1-carbonyl]-3-chloro-phenyl]-5-[1-(5-amino-2-pyridyl)-3-(trifluoromethyl)pyrazol-4-yl]-1-methyl-imidazole-2-carboxamide] | 250 |
| Cn1c(-c2cn(-c3ccc(N)cn3)nc2C(F)(F)F)cnc1C(=O)Nc1ccc(C(=O)N2CC3CNC3C2)c(Cl)c1 (centres unmarked) [Example Z59, 5-[1-(5-amino-2-pyridyl)-3-(trifluoromethyl)pyrazol-4-yl]-N-[3-chloro-4-(3,6-diazabicyclo[3.2.0]heptane-3-carbonyl)phenyl]-1-methyl-imidazole-2-carboxamide] | 1310 |
| Cn1c(-c2cn(-c3ccc(NC(=O)C4CCNCC4)cn3)nc2C(F)(F)F)cnc1C(=O)Nc1ccc(C(=O)N2CCN(C(=O)C3CCNCC3)CC2)c(Cl)c1 [Example Z88, N-[6-[4-[2-[[3-chloro-4-(4-isonipecotoylpiperazine-1-carbonyl)phenyl]carbamoyl]-3-methyl-imidazol-4-yl]-3-(trifluoromethyl)pyrazol-1-yl]-3-pyridyl]isonipecotamide] | 980 |
| Cn1c(-c2cn(-c3cc(F)ncc3N)nc2C(F)(F)F)cnc1C(=O)Nc1ccc(C(=O)N2CCN(C(=O)C3CCNCC3)CC2)c(Cl)c1 [Example Z83, 5-[1-(5-amino-2-fluoro-4-pyridyl)-3-(trifluoromethyl)pyrazol-4-yl]-N-[3-chloro-4-[4-(piperidine-4-carbonyl)piperazine-1-carbonyl]phenyl]-1-methyl-imidazole-2-carboxamide] | 1220 |
| COCCNc1ccc(-n2cc(-c3cnc(C(=O)Nc4ccc(C(=O)N5CCN(C(=O)C6CCNCC6)CC5)c(Cl)c4)n3C)c(C(F)(F)F)n2)nc1 [Example C2, N-[3-chloro-4-[4-(piperidine-4-carbonyl)piperazine-1-carbonyl]phenyl]-5-[1-[5-(2-methoxyethylamino)-2-pyridyl]-3-(trifluoromethyl)pyrazol-4-yl]-1-methyl-imidazole-2-carboxamide] | 340 |
| COCCn1cnc(-n2cc(-c3cnc(C(=O)Nc4ccc(C(=O)N5CCN(C(=O)C6CCNCC6)CC5)c(Cl)c4)n3C)c(C(F)(F)F)n2)c1 [Example E3, N-[3-chloro-4-[4-(piperidine-4-carbonyl)piperazine-1-carbonyl]phenyl]-5-[1-[1-(2-methoxyethyl)imidazol-4-yl]-3-(trifluoromethyl)pyrazol-4-yl]-1-methyl-imidazole-2-carboxamide] | 500 |
| Cn1c(-c2cn(-c3ncccc3C(F)(F)F)nc2C(F)(F)F)cnc1C(=O)Nc1ccc(C(=O)N2CCN(C(=O)C3CCNCC3)CC2)c(Cl)c1 [Example A10, N-[3-chloro-4-[4-(piperidine-4-carbonyl)piperazine-1-carbonyl]phenyl]-1-methyl-5-[3-(trifluoromethyl)-1-[3-(trifluoromethyl)-2-pyridyl]pyrazol-4-yl]imidazole-2-carboxamide] | 830 |
| Cn1c(-c2cn(-c3ccc(N)cn3)nc2C(F)(F)F)cnc1C(=O)Nc1ccc(C(=O)NC2(CN)CC2)c(Cl)c1 [Example Z6, N-[4-[[1-(aminomethyl)cyclopropyl]carbamoyl]-3-chloro-phenyl]-5-[1-(5-amino-2-pyridyl)-3-(trifluoromethyl)pyrazol-4-yl]-1-methyl-imidazole-2-carboxamide] | 930 |
| Cn1c(-c2cn(-c3ccc(N)cn3)nc2C(F)(F)F)cnc1C(=O)Nc1ccc(C(=O)N2C3CCC2CNC3)c(Cl)c1 [Example Z62, 5-[1-(5-amino-2-pyridyl)-3-(trifluoromethyl)pyrazol-4-yl]-N-[3-chloro-4-(3,8-diazabicyclo[3.2.1]octane-8-carbonyl)phenyl]-1-methyl-imidazole-2-carboxamide] | 380 |
| Cn1c(-c2cn(-c3ccc(N)cn3)nc2C(F)(F)F)cnc1C(=O)Nc1ccc(C(=O)N2CCNC3(CC3)C2)c(Cl)c1 [Example Z51, 5-[1-(5-amino-2-pyridyl)-3-(trifluoromethyl)pyrazol-4-yl]-N-[3-chloro-4-(4,7-diazaspiro[2.5]octane-7-carbonyl)phenyl]-1-methyl-imidazole-2-carboxamide] | 990 |
| Cn1c(-c2cn(-c3ccc(N)cn3)nc2C(F)(F)F)cnc1C(=O)Nc1ccc(C(=O)N2CCN(C(=O)C3(O)CCNCC3)CC2)c(Cl)c1 [Example C4, 5-[1-(5-amino-2-pyridyl)-3-(trifluoromethyl)pyrazol-4-yl]-N-[3-chloro-4-[4-(4-hydroxypiperidine-4-carbonyl)piperazine-1-carbonyl]phenyl]-1-methyl-imidazole-2-carboxamide] | 310 |

Continued, values first:

| IC90 [nM] | SMILES |
| --- | --- |
| 1370 | Cn1c(-c2cn(-c3ccc(N)cn3)nc2C(F)(F)F)cnc1C(=O)Nc1ccc(C(=O)N2C[C@H]3CN[C@H]3C2)c(Cl)c1 [Example Z70, 5-[1-(5-amino-2-pyridyl)-3-(trifluoromethyl)pyrazol-4-yl]-N-[3-chloro-4-[(1R,5R)-3,6-diazabicyclo[3.2.0]heptane-3-carbonyl]phenyl]-1-methyl-imidazole-2-carboxamide] |
| 1080 | COCc1c[nH]nc1-n1cc(-c2cnc(C(=O)Nc3ccc(C(=O)N4CCN(C(=O)C5CCN(C)CC5)CC4)c(Cl)c3)n2C)c(C(F)(F)F)n1 [Example Z9, N-[3-chloro-4-[4-(1-methylpiperidine-4-carbonyl)piperazine-1-carbonyl]phenyl]-5-[1-[4-(methoxymethyl)-1H-pyrazol-3-yl]-3-(trifluoromethyl)pyrazol-4-yl]-1-methyl-imidazole-2-carboxamide] |
| 330 | Cn1c(-c2cn(-c3ccc(N)cn3)nc2C(F)(F)F)cnc1C(=O)Nc1ccc(C(=O)N2CCC(N)CC2)c(Cl)c1 [Example Z20, N-[4-(4-aminopiperidine-1-carbonyl)-3-chloro-phenyl]-5-[1-(5-amino-2-pyridyl)-3-(trifluoromethyl)pyrazol-4-yl]-1-methyl-imidazole-2-carboxamide] |
| 500 | Cn1c(-c2cn(-c3ccc(N)cn3)nc2C(F)(F)F)cnc1C(=O)Nc1ccc(C(=O)NCC2CCNCC2)c(Cl)c1 [Example Z3, 5-[1-(5-amino-2-pyridyl)-3-(trifluoromethyl)pyrazol-4-yl]-N-[3-chloro-4-(4-piperidylmethylcarbamoyl)phenyl]-1-methyl-imidazole-2-carboxamide] |
| 670 | Cn1c(-c2cn(-c3ccc(N)cn3)nc2C(F)(F)F)cnc1C(=O)Nc1ccc(C(=O)NCCOCCN)c(Cl)c1 [Example Z21, N-[4-[2-(2-aminoethoxy)ethylcarbamoyl]-3-chloro-phenyl]-5-[1-(5-amino-2-pyridyl)-3-(trifluoromethyl)pyrazol-4-yl]-1-methyl-imidazole-2-carboxamide] |
| 1270 | C[C@@H]1CN(C(=O)c2ccc(NC(=O)c3ncc(-c4cn(-c5ccc(N)cn5)nc4C(F)(F)F)n3C)cc2Cl)CCCN1 [Example Z52, 5-[1-(5-amino-2-pyridyl)-3-(trifluoromethyl)pyrazol-4-yl]-N-[3-chloro-4-[(3R)-3-methyl-1,4-diazepane-1-carbonyl]phenyl]-1-methyl-imidazole-2-carboxamide] |
| 260 | Cn1c(-c2cn(-c3ccc(N)cn3)nc2C(F)(F)F)cnc1C(=O)Nc1ccc(C(=O)N2CCN(C(=O)CN3CCC(O)C3)CC2)c(Cl)c1 (centres unmarked) [Example C16, 5-[1-(5-amino-2-pyridyl)-3-(trifluoromethyl)pyrazol-4-yl]-N-[3-chloro-4-[4-[2-(3-hydroxypyrrolidin-1-yl)acetyl]piperazine-1-carbonyl]phenyl]-1-methyl-imidazole-2-carboxamide] |
| 1160 | Cn1c(-c2cn(-c3ccc(N)cn3)nc2C(F)(F)F)cnc1C(=O)Nc1ccc(C(=O)N2C[C@H]3C[C@@H]2CN3)c(Cl)c1 [Example Z66, 5-[1-(5-amino-2-pyridyl)-3-(trifluoromethyl)pyrazol-4-yl]-N-[3-chloro-4-[(1R,4R)-2,5-diazabicyclo[2.2.1]heptane-2-carbonyl]phenyl]-1-methyl-imidazole-2-carboxamide] |

same assay, conditions: Acinetobacter baumannii, ATCC17961, 16 h, read-out: ATCC 17961 IC90

| SMILES | IC90 [nM] |
| --- | --- |
| Cn1c(-c2cn(-c3ccc(N)cn3)nc2C(F)(F)F)cnc1C(=O)Nc1ccc(C(=O)N2CCN(C(=O)C3CCNCC3)CC2)c(Cl)c1 [Example C1, 5-[1-(5-Amino-2-pyridyl)-3-(trifluoromethyl)pyrazol-4-yl]-N-[3-chloro-4-[4-(piperidine-4-carbonyl)piperazine-1-carbonyl]phenyl]-1-methyl-imidazole-2-carboxamide] | 220 |
| CCNc1ccc(-n2cc(-c3cnc(C(=O)Nc4ccc(C(=O)N5CCN(C(=O)C6CCNCC6)CC5)c(Cl)c4)n3C)c(C(F)(F)F)n2)nc1 [Example K1, N-[3-chloro-4-[4-(piperidine-4-carbonyl)piperazine-1-carbonyl]phenyl]-5-[1-[5-(ethylamino)-2-pyridyl]-3-(trifluoromethyl)pyrazol-4-yl]-1-methyl-imidazole-2-carboxamide] | 500 |
